Source: patent publication US11083723B2, “Use of roluperidone to treat negative symptoms and disorders, increase neuroplasticity, and promote neuroprotection” (Minerva Neurosciences, Inc., priority 2018, dated 2021)
Where a name gives a salt, the structure may show the parent alone.

Key:
[1] = target: alpha1-adrenergic receptors; test: Molecular binding profile, alpha1-adrenergic
[2] = tested on: GDNF release by primary rat astrocytes; test: GDNF release by primary rat astrocytes, in situ ELISA; assay type: cell-based; conditions: 5 days incubation
Method: Experimental Protocol-In Situ ELISA on Primary Astrocytes Rat Primary Culture of Astrocytes Rat mixed glial cells were cultured as described by McCarthy et al. Primary rat glial cells were prepared from the cortical of newborn Wistar rats (1 day). Briefly, meninges and blood vessels of the mice cortex were removed and placed in ice-cold medium of Leibovitz (L15; PanBiotech, ref P04-27055, batch 4511117) containing 2% Penicillin-Streptomycin (PS; PanBiotech, ref P06-07100, batch 2110917) and 1% of bovine serum albumin (BSA; […] Cells were then submitted to a supplementary incubation of 15 min. at 37° C. in presence of deoxyribonuclease I (0.1 mg/mL Panbiotech, ref: P60-37780100, batch: H140508). Cells were then pelleted (5 min. at 1200 rpm) and trypsinization was stopped by adding DMEM (PanBiotech, Ref P04-03600, Batch 8420517) supplemented with 10% FCS (Fischer, Ref 10270106, batch 41A0940K), 1 mM of Na/pyruvate (PanBiotech, ref: P04-43100, batch 3470914). Cells suspension was mechanically dissociated and filtered through […] diameter nylon meshes (BD Falcon, Ref: 352340). The cells were collected by centrifugation at 1200 rpm/min for 10 min, resuspended in culture medium and then plated in culture flasks (Dutscher, ref: 690175). Cells were seeded at a density of 1.25×10^5 cells/cm^2 and culture in 5% CO2 at 37° C. Medium was changed 3 times per week. At confluency, astrocytes were plated in 96-well Nunc MaxiSorp surface polystyrene flat-bottom immunoplate precoated with poly-D-lysine during 30 min (Sigma, Ref: […], batch: SLBS8705) and an anti-GDNF monoclonal antibody overnight at 4° C. at a density of 30,000 cells/well. […] At the end of drug treatment, cells were carefully washed with TBST (20 mM Tris-HCl (pH 7.6), 150 mM NaCl, and 0.05% (vol/vol) Tween 20). The plate was then incubated with the polyclonal anti-human GDNF antibody overnight. The amount of specifically bound polyclonal antibody, which when exposed to chromogenic substrate (TMB reagent; Promega), changes color in proportion to the amount of GDNF present in the sample. The color intensity was quantified by measuring the absorbance at 450 nm. GDNF standards, ranging in concentration from 0 to 500 pg/mL were added in parallel wells in the same medium than hippocampal neurons.

cholinergic receptors = test: Receptor affinity, cholinergic; assay type: binding
sigma1 receptors = sigma1 receptors (Homo sapiens, UniProt Q99720); test: Molecular binding profile, sigma1
Chain of sigma1 receptors (Q99720 whole entry): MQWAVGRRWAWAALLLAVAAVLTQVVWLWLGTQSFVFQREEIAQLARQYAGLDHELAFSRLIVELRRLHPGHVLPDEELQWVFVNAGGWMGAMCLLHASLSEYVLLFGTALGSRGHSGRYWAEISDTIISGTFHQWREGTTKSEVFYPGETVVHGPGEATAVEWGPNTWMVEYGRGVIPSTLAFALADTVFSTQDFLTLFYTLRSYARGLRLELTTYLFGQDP

sigma2 receptors = sigma2 receptors (Homo sapiens, UniProt Q5BJF2); test: Molecular binding profile, sigma2
Chain of sigma2 receptors (Q5BJF2 whole entry): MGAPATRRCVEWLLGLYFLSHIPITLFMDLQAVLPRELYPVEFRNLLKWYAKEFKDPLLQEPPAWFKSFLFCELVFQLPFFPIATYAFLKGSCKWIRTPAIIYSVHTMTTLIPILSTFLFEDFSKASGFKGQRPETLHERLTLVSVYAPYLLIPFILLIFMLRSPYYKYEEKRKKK

[3] = tested on: BDNF release by primary hippocampal neurons; test: BDNF release by primary hippocampal neurons, in situ ELISA; assay type: cell-based, rat; conditions: 3 days incubation
Method: Hippocampal neurons were plated in 96-well Nunc MaxiSorp surface polystyrene flat-bottom immunoplate precoated with poly-D-lysine during 30 min an anti-BDNF monoclonal antibody overnight at 4° C. at a density of 70,000 cells/well. […] At the end of drug treatment, cells were carefully washed with TBST (20 mM Tris-HCl (pH 7.6), 150 mM NaCl, and 0.05% (vol/vol) Tween 20). The plate was then incubated with the polyclonal anti-human BDNF antibody overnight and BDNF quantified.
Experimental Protocol—In Situ ELISA on Primary Hippocampal Neurons Hippocampal Neuron Culture
Newborn rats (Wistar rats, Janvier) were deeply anesthetized by hypothermia and decapitated. […] Cells were mechanically dissociated by 3 passages through a 10 ml pipette. Cells were then centrifuged at 515×g for 10 min at 4° C. […] Viable cells were counted in a Neubauer cytometer using the trypan blue exclusion test.
Hippocampal neurons were plated in 96-well Nunc MaxiSorp surface polystyrene flat-bottom immunoplate precoated with poly-D-lysine during 30 min (Sigma, Ref: P7886, batch: SLBS8705) an anti-BDNF monoclonal antibody overnight at 4° C. at a density of 70000 cells/well.
At the end of drug treatment, cells were carefully washed with TBST (20 mM Tris-HCl (pH 7.6), 150 mM NaCl, and 0.05% (vol/vol) Tween 20). The plate was then incubated with the polyclonal anti-human BDNF antibody overnight. The amount of specifically bound polyclonal antibody was then detected through the use of the anti-IgY-horseradish peroxidase tertiary antibody, which when exposed to the chromogenic substrate (TMB reagent; Promega), changes color in proportion to the amount of BDNF present in the sample. The color intensity was quantified by measuring the absorbance at 450 nm.

[4] = modified release (MR) formulation of Compound (I) that reduces QT prolongation; cited from earlier work

O=C(CN1CCC(CN2Cc3ccccc3C2=O)CC1)c1ccc(F)cc1 [Compound (I), 1H-Isoindol-1-one, 2-[[1-[2-(4-Fluorophenyl)-2-oxoethyl]-4-piperidinyl]methyl]-2,3-dihydro-, hydrochloride, hydrate (1:1:2)]
Ki [1]: 14.4 nM | GDNF release astrocytes, % increase of control conditions ([2]; 3 nM): 11.4% | GDNF release astrocytes, % increase of control conditions ([2]; 10 nM): 13.8% | GDNF release astrocytes, % increase of control conditions ([2]; 30 nM): 14.2% | GDNF release astrocytes, % increase of control conditions ([2]; 100 nM): 14.8% | GDNF release astrocytes, % increase of control conditions ([2]; 300 nM): 20.8% | GDNF release astrocytes, % increase of control conditions ([2]; 1 μM): 17.5% | affinity for cholinergic receptors (cholinergic receptors): no affinity | Ki (sigma1 receptors): 254 nM | Ki (sigma2 receptors): 8.2 nM | selectivity sigma2 versus sigma1 receptors (sigma2 receptors; sigma2 versus sigma1): 30 fold | BDNF release hippocampal neurons, % increase of control conditions ([3]; 30 nM): 11.0% | BDNF release hippocampal neurons, % increase of control conditions ([3]; 100 nM): 14.9% | BDNF release hippocampal neurons, % increase of control conditions ([3]; 300 nM): 27.5% | BDNF release hippocampal neurons, % increase of control conditions ([3]; 1 μM): 24.3% | maximum plasma concentration (Cmax) [4]: below 80 ng/mL
